{"source": "patent US20220064138A1", "about": "“MACROLIDE BREFELDIN A ESTER DERIVATIVES AND USE THEREOF” (OCEAN UNIVERSITY OF CHINA, priority 2019, published 2022)", "key": {"[1]": {"system": "Human cervical cancer Hela cells", "assay": "Cell proliferation assay (CCK-8)", "format": "cell-based", "conditions": "72 h", "summary_of_the_method": "(§1)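 Log-phase cells seeded 5000/well in DMEM + 10% FBS, dosed after 24 h in duplicate wells (DMSO ≤2‰) and incubated 72 h at 37 °C, 5% CO2. CCK-8 (WST-8) added for 1.5–3 h, OD450 read; % inhibition vs control minus blank, IC50 by variable-slope log(inhibitor)–response fit.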"}, "[2]": {"system": "esophageal cancer Eca-109 cells", "assay": "Cell proliferation assay (CCK-8)", "format": "cell-based", "conditions": "Homo sapiens, Eca-109, 72 h", "summary_of_the_method": "as §1"}, "[3]": {"system": "human breast cancer MCF7 cells", "assay": "Cell proliferation assay (CCK-8)", "format": "cell-based", "conditions": "MCF7, 72 h", "summary_of_the_method": "as §1"}, "[4]": {"system": "human gastric cancer MKN-45 cells", "assay": "Cell proliferation assay (CCK-8)", "format": "cell-based", "conditions": "MKN-45, 72 h", "summary_of_the_method": "as §1"}, "[5]": {"system": "human leukemia K562 cells", "assay": "Cell proliferation assay (CCK-8)", "format": "cell-based", "conditions": "K562, 72 h", "summary_of_the_method": "as §1"}, "[6]": {"system": "human liver cancer HepG2 cells", "assay": "Cell proliferation assay (CCK-8)", "format": "cell-based", "conditions": "HepG2, 72 h", "summary_of_the_method": "as §1"}, "[7]": {"system": "human lung cancer A549 cells", "assay": "Cell proliferation assay (CCK-8)", "format": "cell-based", "conditions": "A549, 72 h", "summary_of_the_method": "as §1"}, "[8]": {"system": "pancreatic cancer PANC-1 cells", "assay": "Cell proliferation assay (CCK-8)", "format": "cell-based", "conditions": "Homo sapiens, PANC-1, 72 h", "summary_of_the_method": "as §1"}, "Kunming breed mice": {"system": "Kunming breed mice", "assay": "Toxicity test after intraperitoneal administration to mice", "format": "in vivo", "conditions": "14 d; for Deaths: high and low doses (BFA effective amount conversion), ip., mice; for Mental condition of the animals after administration / Results of anatomy: abnormality in organs: male, Kunming, mouse, in vivo, ip", "description": "Objective: Observation of toxic effects of compounds after intraperitoneally administration (ip.) to mice\n1) Agents: Compounds disclosed herein were formulated to a suitable concentration.\n2) Animals: Kunming breed mice, weight 18-22 g, male. Provided by Jinan Pengyue Laboratory Animal Breeding Co., Ltd. Animal license number: SCXK (Shandong 20140007)\nMethod: Kunming breed mice, were randomly grouped by weight, 6 mice per group, namely normal control group, BFA high and low dose groups (100 mg/kg and 50 mg/kg, respectively), and high and low dose groups of some compounds disclosed herein (BFA effective amount conversion). […] After 14 d of continuous administration, all the animals were weighed, and the animals were executed to observe whether there were any abnormalities in the organs."}, "[9]": {"assay": "Solubility test (shaking 24 h at 37° C., HPLC)", "protocol": "(§2) Methods: Excess BFA and the compounds disclosed herein were added to 10 mL of three solvents, methanol, acetone and 5% DMSO+95% H2O, respectively, and shaken on a shaker at 37° C. at 100 r/min for 24 h. After 24 h, the samples were centrifuged at 15 000 r/min for 15 min to remove the undissolved compounds. The supernatant was filtered using a 0.45 μm membrane filter. The supernatant was appropriately diluted with methanol and contents of the compounds were determined by HPLC method to calculate the solubility."}, "physchem": {"assay": "physchem", "conditions": "37° C., x ± s, n = 3", "protocol": "as §2"}}, "data": [{"smiles": "C[C@H]1CCC/C=C/[C@@H]2C[C@H](O)C[C@H]2[C@H](OC(=O)/C=C/c2ccc(N(C)C)cc2)/C=C/C(=O)O1", "note": "[Compound 10b, 4-O-(4-dimethylaminocinnamic acid)acyl BFA]", "values": [{"measurement": "IC50", "setting": "[1]", "result": "100 to 1000", "unit": "nM"}, {"measurement": "IC50", "setting": "[2]", "result": "1000 to 10000", "unit": "nM"}, {"measurement": "IC50", "setting": "[3]", "result": "100 to 1000", "unit": "nM"}, {"measurement": "IC50", "setting": "[4]", "result": "100 to 1000", "unit": "nM"}, {"measurement": "IC50", "setting": "[5]", "result": "100 to 1000", "unit": "nM"}, {"measurement": "IC50", "setting": "[6]", "result": "100 to 1000", "unit": "nM"}, {"measurement": "IC50", "setting": "[7]", "result": "100 to 1000", "unit": "nM"}, {"measurement": "IC50", "setting": "[8]", "result": "100 to 1000", "unit": "nM"}, {"measurement": "Deaths", "setting": "Kunming breed mice", "result": "no deaths"}, {"measurement": "Mental condition of the animals after administration", "setting": "Kunming breed mice", "result": "good mental condition"}, {"measurement": "Results of anatomy: abnormality in organs", "setting": "Kunming breed mice", "result": "no significant abnormality in all organs"}, {"measurement": "solubility at 24 h", "setting": "[9]; 5% DMSO + 95% H2O", "result": "0.72 ± 0.13", "unit": "mg/mL"}, {"measurement": "solubility at 24 h", "setting": "[9]; acetone", "result": "23.2 ± 1.32", "unit": "mg/mL"}, {"measurement": "solubility at 24 h", "setting": "[9]; methanol", "result": "24.2 ± 1.22", "unit": "mg/mL"}]}, {"smiles": "C[C@H]1CCC/C=C/[C@@H]2C[C@H](OC(=O)/C=C/c3ccc(N(C)C)cc3)C[C@H]2[C@H](OC(=O)/C=C/c2ccc(N(C)C)cc2)/C=C/C(=O)O1", "note": "[Compound 10c, 4,7-O-bis(4-dimethylaminocinnamic acid)acyl BFA]", "values": [{"measurement": "IC50", "setting": "[1]", "result": "1000 to 10000", "unit": "nM"}, {"measurement": "IC50", "setting": "[2]", "result": "1000 to 10000", "unit": "nM"}, {"measurement": "IC50", "setting": "[3]", "result": "1000 to 10000", "unit": "nM"}, {"measurement": "IC50", "setting": "[4]", "result": "100 to 1000", "unit": "nM"}, {"measurement": "IC50", "setting": "[5]", "result": "100 to 1000", "unit": "nM"}, {"measurement": "IC50", "setting": "[6]", "result": "1000 to 10000", "unit": "nM"}, {"measurement": "IC50", "setting": "[7]", "result": "100 to 1000", "unit": "nM"}, {"measurement": "IC50", "setting": "[8]", "result": "1000 to 10000", "unit": "nM"}, {"measurement": "Deaths", "setting": "Kunming breed mice", "result": "no deaths"}, {"measurement": "Mental condition of the animals after administration", "setting": "Kunming breed mice", "result": "good mental condition"}, {"measurement": "Results of anatomy: abnormality in organs", "setting": "Kunming breed mice", "result": "no significant abnormality in all organs"}, {"measurement": "solubility at 24 h", "setting": "[9]; 5% DMSO + 95% H2O", "result": "0.44 ± 0.08", "unit": "mg/mL"}, {"measurement": "solubility at 24 h", "setting": "[9]; acetone", "result": "12.5 ± 0.92", "unit": "mg/mL"}, {"measurement": "solubility at 24 h", "setting": "[9]; methanol", "result": "13.3 ± 0.91", "unit": "mg/mL"}]}, {"smiles": "C[C@H]1CCC/C=C/[C@@H]2C[C@H](OC(=O)/C=C/c3cccnc3)C[C@H]2[C@H](O)/C=C/C(=O)O1", "note": "[Compound 16a, 7-O-(3-(pyridine-3-yl)acrylic acid)acyl BFA]", "values": [{"measurement": "IC50", "setting": "[1]", "result": "100 to 1000", "unit": "nM"}, {"measurement": "IC50", "setting": "[2]", "result": "100 to 1000", "unit": "nM"}, {"measurement": "IC50", "setting": "[3]", "result": "100 to 1000", "unit": "nM"}, {"measurement": "IC50", "setting": "[4]", "result": "100 to 1000", "unit": "nM"}, {"measurement": "IC50", "setting": "[5]", "result": "100 to 1000", "unit": "nM"}, {"measurement": "IC50", "setting": "[6]", "result": "< 100", "unit": "nM"}, {"measurement": "IC50", "setting": "[7]", "result": "100 to 1000", "unit": "nM"}, {"measurement": "IC50", "setting": "[8]", "result": "< 100", "unit": "nM"}, {"measurement": "Deaths", "setting": "Kunming breed mice", "result": "no deaths"}, {"measurement": "Mental condition of the animals after administration", "setting": "Kunming breed mice", "result": "good mental condition"}, {"measurement": "Results of anatomy: abnormality in organs", "setting": "Kunming breed mice", "result": "no significant abnormality in all organs"}, {"measurement": "solubility at 24 h", "setting": "physchem; Acetone", "result": "31.6 ± 0.72", "unit": "mg/mL"}]}, {"smiles": "C[C@H]1CCC/C=C/[C@@H]2C[C@H](OC(=O)/C=C/c3cnc4ccccc4c3)C[C@H]2[C@H](OC(=O)/C=C/c2cnc3ccccc3c2)/C=C/C(=O)O1", "note": "[Compound 17c]", "values": [{"measurement": "IC50", "setting": "[1]", "result": "1000 to 10000", "unit": "nM"}, {"measurement": "IC50", "setting": "[2]", "result": "1000 to 10000", "unit": "nM"}, {"measurement": "IC50", "setting": "[3]", "result": "100 to 1000", "unit": "nM"}, {"measurement": "IC50", "setting": "[4]", "result": "1000 to 10000", "unit": "nM"}, {"measurement": "IC50", "setting": "[5]", "result": "100 to 1000", "unit": "nM"}, {"measurement": "IC50", "setting": "[6]", "result": "100 to 1000", "unit": "nM"}, {"measurement": "IC50", "setting": "[7]", "result": "1000 to 10000", "unit": "nM"}, {"measurement": "IC50", "setting": "[8]", "result": "100 to 1000", "unit": "nM"}, {"measurement": "solubility at 24 h", "setting": "physchem; 5% DMSO + 95% H2O", "result": "0.45 ± 0.28", "unit": "mg/mL"}, {"measurement": "solubility at 24 h", "setting": "physchem; Methanol", "result": "20.4 ± 0.52", "unit": "mg/mL"}]}]}
